{
  "source": "patent EP3909969A1",
  "about": "“PEPTIDE FOR HYDROGEL FORMATION” (Freie Universität Berlin, priority 2020, dated 2021)",
  "tested_on": "NIH/3T3 embryonic mouse fibroblast cells",
  "assay": "Cytotoxicity assay of hydrogel cultured cells by Cell Counting Kit-8 (CCK-8)",
  "assay_type": "cell-based",
  "conditions": "hydrogel at 0.3 wt%, after 24 h, NIH/3T3 cells",
  "description": "NIH/3T3 embryonic mouse fibroblast cells were cultured in DMEM culture medium (Lonza, 4,5 g/L glucose, 10 % FCS, 1 % penicillin/streptomycin) in a humidified incubator (5 % CO2, 37°C). The cells were grown in 175 cm^2 cell culture flaks and medium was changed thrice a week. Upon confluency of 70 % - 80 % the culture was subcultured according to the detected cell number.\nTo determine whether different peptide hydrogel compositions would be tolerated by the cells CCK-8 was used to conduct viability of cells during a 3 days cell culture. A suspension of NIH/3T3 cells in DMEM (4.5 g/L, 10 % FCS, 1 % penicillin/streptomycin) was seeded in a transparent 96-well plate with a density of 10.000 cells in an overall volume of 100 µL per well containing the respecting hydrogels. 10 µL of 1 % (w/v) SDS was added to the respective wells of positive control and the plate was further incubated for 24 h and 72 h at 37°C and 5 % CO2 respectively. After each time points 10 µL of CCK-8 solution were added to each well and allowed to incubate for 2 h in a humidified incubator at 37°C. During this time dehydrogenases in viable cells reduces WST-8 tetrazolium to formazan, which will be detected by measuring the absorbance at 450 nm. Absorbance was measured by using a Tecan Infinite 200 Pro microplate reader. Three experiments were performed in triplicates per hydrogel candidate (n=3). […]",
  "data": [
    {"smiles": "CC(C)C[C@H](NC(=O)[C@H](CCC(=O)O)NC(=O)[C@H](CCCCN)NC(=O)[C@H](CCCCN)NC(=O)[C@H](CC(C)C)NC(=O)[C@H](C)NC(=O)[C@H](C)NC(=O)[C@H](CC(C)C)NC(=O)[C@H](CCC(=O)O)NC(=O)[C@H](CCCCN)NC(=O)[C@H](CCCCN)NC(=O)[C@H](CC(C)C)NC(=O)[C@H](C)NC(=O)[C@H](C)NC(=O)[C@H](CC(C)C)NC(=O)[C@H](CCC(=O)O)NC(=O)[C@H](CCCCN)NC(=O)[C@H](CCCCN)NC(=O)[C@H](CC(C)C)NC(=O)[C@H](C)NC(=O)[C@H](C)NC(=O)[C@H](CC(C)C)NC(=O)[C@H](CCC(=O)O)NC(=O)[C@H](CCCCN)NC(=O)[C@H](CCCCN)NC(=O)[C@H](CC(C)C)NC(=O)c1ccccc1N)C(=O)O", "note": "[hFF03]", "values": [
      {"measurement": "viability compared to the control", "result": "higher than 160%"}
    ]}
  ]
}
